In paper PMC8882856, “The affinity and selectivity of α‐adrenoceptor antagonists, antidepressants and antipsychotics for the human α2A, α2B, and α2C‐adrenoceptors and comparison with human α1 and β‐adrenoceptors” (Pharmacology Research & Perspectives, 2022):

Target: human β2‐adrenoceptor (Homo sapiens, UniProt P07550)
Assay: not given
Type: binding
Details: ^3H‐CGP12177; log value

human β2‐adrenoceptor, sequence (P07550 whole entry): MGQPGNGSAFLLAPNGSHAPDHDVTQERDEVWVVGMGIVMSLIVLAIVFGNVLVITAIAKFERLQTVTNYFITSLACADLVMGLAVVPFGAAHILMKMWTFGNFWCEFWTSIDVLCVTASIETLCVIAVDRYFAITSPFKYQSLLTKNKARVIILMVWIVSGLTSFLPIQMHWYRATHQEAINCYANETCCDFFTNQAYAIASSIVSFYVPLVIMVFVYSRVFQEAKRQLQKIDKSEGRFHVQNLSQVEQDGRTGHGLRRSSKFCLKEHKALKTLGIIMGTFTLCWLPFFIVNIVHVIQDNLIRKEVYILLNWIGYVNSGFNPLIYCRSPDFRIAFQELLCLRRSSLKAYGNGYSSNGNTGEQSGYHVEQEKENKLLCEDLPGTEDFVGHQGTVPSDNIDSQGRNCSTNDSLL

| Structure (SMILES) | IC50 (log) β2, IC50>top concentration used |
| --- | --- |
| COc1ccccc1N1CCN(CC2CN3C(=O)N(C)c4ccccc4C3=N2)CC1 (centres unmarked) [2‐MPMDQ] | IC50>−5 |
| O=C1Nc2ccccc2C2=NC(CN3CCN(c4ccccc4)CC3)CN12 (centres unmarked) [2‐PMDQ] | IC50>−4 |
| O=C1c2ccccc2CCC1CNCCc1ccc(O)cc1 (centres unmarked) [HEAT] | IC50>−4 |
| CCS(=O)(=O)N1CCC[C@@H]2CN3CCc4cc(OC)ccc4[C@@H]3C[C@@H]21 [RS79948] | IC50>−3 |
| COc1ccc(NC(=O)N2CCc3c2ccc2ccccc32)cc1N1CCN(C)CC1 [S32212] | IC50>−5 |

Same assay, conditions: ^3H‐CGP12177; log value; read-out: IC50 (log) β2, IC50>top concentration used (converted)

| Structure (SMILES) | IC50 [µM] |
| --- | --- |
| CN(C)CC/C=C1\c2ccccc2CSc2ccccc21 [dosulepin] | > 100 |
| OCCN1CCN(CCC=C2c3ccccc3Sc3ccc(C(F)(F)F)cc32)CC1 [flupenthixol] | > 10 |
| CN(CCCN1c2ccccc2CCc2ccccc21)CC(=O)c1ccc(Cl)cc1 [lofepramine] | > 100 |
| Cc1nc2n(c(=O)c1CCN1CCC(c3noc4cc(F)ccc34)CC1)CCCC2O (centres unmarked) [paliperidone] | > 31.6 |
| O=C1CCC(=O)N1C[C@H]1CC[C@H]2CN(c3ncccn3)CCN2C1 [sunepitron] | > 1000 |

Target: T1, human α2A‐adrenoceptor (Homo sapiens, UniProt P08913)
T1 sequence (P08913 1-465): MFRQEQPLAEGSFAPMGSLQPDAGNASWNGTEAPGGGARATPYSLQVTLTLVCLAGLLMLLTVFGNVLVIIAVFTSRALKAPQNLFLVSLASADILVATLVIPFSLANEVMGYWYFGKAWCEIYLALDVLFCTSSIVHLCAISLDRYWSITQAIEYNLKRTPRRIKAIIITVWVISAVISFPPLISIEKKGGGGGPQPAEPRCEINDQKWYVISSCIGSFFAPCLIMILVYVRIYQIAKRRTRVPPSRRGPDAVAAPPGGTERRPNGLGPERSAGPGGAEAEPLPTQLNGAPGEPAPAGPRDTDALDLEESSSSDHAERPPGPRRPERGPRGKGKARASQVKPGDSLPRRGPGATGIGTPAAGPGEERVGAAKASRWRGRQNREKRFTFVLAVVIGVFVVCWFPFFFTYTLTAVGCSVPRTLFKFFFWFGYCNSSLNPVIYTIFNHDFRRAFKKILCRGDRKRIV
Assay: not given
Details: not given

| Structure (SMILES) | Kd [µM] |
| --- | --- |
| COc1ccccc1N1CCN(CC2CN3C(=O)N(C)c4ccccc4C3=N2)CC1 (centres unmarked) [2‐MPMDQ] | 0.162 |
| O=C1Nc2ccccc2C2=NC(CN3CCN(c4ccccc4)CC3)CN12 (centres unmarked) [2‐PMDQ] | 0.148 |
| O=C1c2ccccc2CCC1CNCCc1ccc(O)cc1 (centres unmarked) [HEAT] | 0.0355 |
| CCS(=O)(=O)N1CCC[C@@H]2CN3CCc4cc(OC)ccc4[C@@H]3C[C@@H]21 [RS79948] | 0.00117 |
| COc1ccc(NC(=O)N2CCc3c2ccc2ccccc32)cc1N1CCN(C)CC1 [S32212] | 0.24 |

Target: T2, human α2B‐adrenoceptor (Homo sapiens, UniProt P18089)
T2 sequence (P18089 1-450): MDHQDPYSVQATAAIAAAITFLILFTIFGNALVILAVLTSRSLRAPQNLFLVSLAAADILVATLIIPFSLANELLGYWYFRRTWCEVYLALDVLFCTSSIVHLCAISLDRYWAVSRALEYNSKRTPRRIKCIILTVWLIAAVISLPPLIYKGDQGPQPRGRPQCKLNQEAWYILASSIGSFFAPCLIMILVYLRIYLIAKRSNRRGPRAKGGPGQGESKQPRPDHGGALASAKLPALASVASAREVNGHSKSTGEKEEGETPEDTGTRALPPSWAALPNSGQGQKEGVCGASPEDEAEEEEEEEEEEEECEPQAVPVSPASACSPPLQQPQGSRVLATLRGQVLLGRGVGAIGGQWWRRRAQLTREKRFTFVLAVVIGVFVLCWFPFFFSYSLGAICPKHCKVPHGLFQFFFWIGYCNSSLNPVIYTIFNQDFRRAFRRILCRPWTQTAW
Assay: not given
Details: not given

| Structure (SMILES) | Kd [µM] |
| --- | --- |
| COc1ccccc1N1CCN(CC2CN3C(=O)N(C)c4ccccc4C3=N2)CC1 (centres unmarked) [2‐MPMDQ] | 1.15 |
| O=C1Nc2ccccc2C2=NC(CN3CCN(c4ccccc4)CC3)CN12 (centres unmarked) [2‐PMDQ] | 0.724 |
| O=C1c2ccccc2CCC1CNCCc1ccc(O)cc1 (centres unmarked) [HEAT] | 0.0191 |
| CCS(=O)(=O)N1CCC[C@@H]2CN3CCc4cc(OC)ccc4[C@@H]3C[C@@H]21 [RS79948] | 0.00269 |
| COc1ccc(NC(=O)N2CCc3c2ccc2ccccc32)cc1N1CCN(C)CC1 [S32212] | 0.0158 |

Target: T3, human α2C‐adrenoceptor (Homo sapiens, UniProt P18825)
T3 sequence (P18825 1-462): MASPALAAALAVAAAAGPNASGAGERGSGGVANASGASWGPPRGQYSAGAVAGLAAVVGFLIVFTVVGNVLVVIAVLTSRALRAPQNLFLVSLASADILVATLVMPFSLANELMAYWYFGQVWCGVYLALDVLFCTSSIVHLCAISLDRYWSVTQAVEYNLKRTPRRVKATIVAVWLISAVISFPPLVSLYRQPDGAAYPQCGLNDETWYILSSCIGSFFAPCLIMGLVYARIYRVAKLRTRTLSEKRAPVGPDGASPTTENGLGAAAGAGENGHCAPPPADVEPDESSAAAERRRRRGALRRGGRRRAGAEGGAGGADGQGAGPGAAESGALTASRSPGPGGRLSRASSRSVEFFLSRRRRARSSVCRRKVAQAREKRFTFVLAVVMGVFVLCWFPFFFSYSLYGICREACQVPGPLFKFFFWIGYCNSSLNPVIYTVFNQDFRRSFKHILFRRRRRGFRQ
Assay: not given
Details: not given

| Structure (SMILES) | Kd [µM] |
| --- | --- |
| COc1ccccc1N1CCN(CC2CN3C(=O)N(C)c4ccccc4C3=N2)CC1 (centres unmarked) [2‐MPMDQ] | 0.0316 |
| O=C1Nc2ccccc2C2=NC(CN3CCN(c4ccccc4)CC3)CN12 (centres unmarked) [2‐PMDQ] | 0.0851 |
| O=C1c2ccccc2CCC1CNCCc1ccc(O)cc1 (centres unmarked) [HEAT] | 0.00891 |
| CCS(=O)(=O)N1CCC[C@@H]2CN3CCc4cc(OC)ccc4[C@@H]3C[C@@H]21 [RS79948] | 0.000437 |
| COc1ccc(NC(=O)N2CCc3c2ccc2ccccc32)cc1N1CCN(C)CC1 [S32212] | 0.0661 |

Target: T4, human β1‐adrenoceptor (Homo sapiens, UniProt P08588)
Assay: not given
Details: ^3H‐CGP12177; log value

T4 sequence (P08588 whole entry): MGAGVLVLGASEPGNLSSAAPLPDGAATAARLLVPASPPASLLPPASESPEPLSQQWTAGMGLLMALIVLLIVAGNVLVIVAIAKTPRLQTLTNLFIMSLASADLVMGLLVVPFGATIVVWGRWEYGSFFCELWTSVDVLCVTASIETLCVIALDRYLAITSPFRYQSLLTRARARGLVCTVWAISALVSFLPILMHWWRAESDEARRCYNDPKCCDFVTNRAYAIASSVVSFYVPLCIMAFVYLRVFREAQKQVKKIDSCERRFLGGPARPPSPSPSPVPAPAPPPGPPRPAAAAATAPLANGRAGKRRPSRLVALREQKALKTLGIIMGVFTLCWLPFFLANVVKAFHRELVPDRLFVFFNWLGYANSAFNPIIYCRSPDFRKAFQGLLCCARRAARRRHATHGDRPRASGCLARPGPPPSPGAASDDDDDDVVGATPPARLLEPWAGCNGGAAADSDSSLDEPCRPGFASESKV

| Structure (SMILES) | IC50 (log) β1, IC50>top concentration used |
| --- | --- |
| COc1ccccc1N1CCN(CC2CN3C(=O)N(C)c4ccccc4C3=N2)CC1 (centres unmarked) [2‐MPMDQ] | IC50>−5 |
| O=C1c2ccccc2CCC1CNCCc1ccc(O)cc1 (centres unmarked) [HEAT] | IC50 ~−4.5 |
| COc1ccc(NC(=O)N2CCc3c2ccc2ccccc32)cc1N1CCN(C)CC1 [S32212] | IC50>−5 |

Same assay, conditions: ^3H‐CGP12177 whole cell binding; log values, mean ± s.e.mean; ^app = apparent KD; 'no binding to' = log top concentration

| Structure (SMILES) | Log KD β1 |
| --- | --- |
| O=C1Nc2ccccc2C2=NC(CN3CCN(c4ccccc4)CC3)CN12 (centres unmarked) [2‐PMDQ] | No binding −4 |
| CCS(=O)(=O)N1CCC[C@@H]2CN3CCc4cc(OC)ccc4[C@@H]3C[C@@H]21 [RS79948] | −3.84 ± 0.05 |

Target: human α1A‐adrenoceptor
Assay: not given
Design: method as in PMID 32608144
Details: identical whole cell method; ref [33]; read-out: α1A‐adrenoceptor affinity; cited from earlier work

| Structure (SMILES) | Kd [µM] |
| --- | --- |
| Cc1nc2n(c(=O)c1CCN1CCC(c3noc4cc(F)ccc34)CC1)CCCC2O (centres unmarked) [paliperidone] | 0.004 |

Target: T1, human α2A‐adrenoceptor
Assay: cell-based
Details: not given

| Structure (SMILES) | Kd [µM] |
| --- | --- |
| CN(C)CC/C=C1\c2ccccc2CSc2ccccc21 [dosulepin] | 6.92 |
| OCCN1CCN(CCC=C2c3ccccc3Sc3ccc(C(F)(F)F)cc32)CC1 [flupenthixol] | 0.794 |
| CN(CCCN1c2ccccc2CCc2ccccc21)CC(=O)c1ccc(Cl)cc1 [lofepramine] | 13.8 |
| O=C1CCC(=O)N1C[C@H]1CC[C@H]2CN(c3ncccn3)CCN2C1 [sunepitron] | 0.0525 |

Target: T2, human α2B‐adrenoceptor
Assay: cell-based
Details: not given

| Structure (SMILES) | Kd [µM] |
| --- | --- |
| CN(C)CC/C=C1\c2ccccc2CSc2ccccc21 [dosulepin] | 0.631 |
| OCCN1CCN(CCC=C2c3ccccc3Sc3ccc(C(F)(F)F)cc32)CC1 [flupenthixol] | 0.525 |
| CN(CCCN1c2ccccc2CCc2ccccc21)CC(=O)c1ccc(Cl)cc1 [lofepramine] | 2.51 |
| O=C1CCC(=O)N1C[C@H]1CC[C@H]2CN(c3ncccn3)CCN2C1 [sunepitron] | 0.224 |

Target: T3, human α2C‐adrenoceptor
Assay: cell-based
Details: not given

| Structure (SMILES) | Kd [µM] |
| --- | --- |
| CN(C)CC/C=C1\c2ccccc2CSc2ccccc21 [dosulepin] | 2.34 |
| OCCN1CCN(CCC=C2c3ccccc3Sc3ccc(C(F)(F)F)cc32)CC1 [flupenthixol] | 0.132 |
| CN(CCCN1c2ccccc2CCc2ccccc21)CC(=O)c1ccc(Cl)cc1 [lofepramine] | 5.25 |
| O=C1CCC(=O)N1C[C@H]1CC[C@H]2CN(c3ncccn3)CCN2C1 [sunepitron] | 0.00776 |

Target: T4, human β1‐adrenoceptor
Assay: cell-based
Details: not given

| Structure (SMILES) | IC50 [µM] |
| --- | --- |
| CN(C)CC/C=C1\c2ccccc2CSc2ccccc21 [dosulepin] | > 100 |
| OCCN1CCN(CCC=C2c3ccccc3Sc3ccc(C(F)(F)F)cc32)CC1 [flupenthixol] | > 10 |
| CN(CCCN1c2ccccc2CCc2ccccc21)CC(=O)c1ccc(Cl)cc1 [lofepramine] | > 100 |
| Cc1nc2n(c(=O)c1CCN1CCC(c3noc4cc(F)ccc34)CC1)CCCC2O (centres unmarked) [paliperidone] | > 31.6 |
| O=C1CCC(=O)N1C[C@H]1CC[C@H]2CN(c3ncccn3)CCN2C1 [sunepitron] | > 1000 |

Target: T1, human α2A‐adrenoceptor
Assay: ^3H‐rauwolscine whole cell competition binding, CHO‐α2A cells
Details: ratio of KD values

| Structure (SMILES) | Selectivity ratio α2A vs α2B (higher affinity for α2A) |
| --- | --- |
| COc1ccccc1N1CCN(CC2CN3C(=O)N(C)c4ccccc4C3=N2)CC1 (centres unmarked) [2‐MPMDQ] | 7.1 |
| O=C1Nc2ccccc2C2=NC(CN3CCN(c4ccccc4)CC3)CN12 (centres unmarked) [2‐PMDQ] | 4.9 |
| CCS(=O)(=O)N1CCC[C@@H]2CN3CCc4cc(OC)ccc4[C@@H]3C[C@@H]21 [RS79948] | 2.3 |
| O=C1CCC(=O)N1C[C@H]1CC[C@H]2CN(c3ncccn3)CCN2C1 [sunepitron] | 4.3 |

Target: T2, human α2B‐adrenoceptor
Assay: ^3H‐rauwolscine whole cell competition binding, CHO‐α2B cells
Details: not given

| Structure (SMILES) | selectivity α2B versus α2C |
| --- | --- |
| COc1ccc(NC(=O)N2CCc3c2ccc2ccccc32)cc1N1CCN(C)CC1 [S32212] | less than 5 fold |

Same assay, conditions: ratio of KD values

| Structure (SMILES) | Selectivity ratio α2A vs α2B (higher affinity for α2B) | Selectivity ratio α2B vs α2C (higher affinity for α2B) |
| --- | --- | --- |
| O=C1c2ccccc2CCC1CNCCc1ccc(O)cc1 (centres unmarked) [HEAT] | 1.9 |  |
| COc1ccc(NC(=O)N2CCc3c2ccc2ccccc32)cc1N1CCN(C)CC1 [S32212] | 15.1 | 4.2 |
| CN(C)CC/C=C1\c2ccccc2CSc2ccccc21 [dosulepin] | 11.0 | 3.7 |
| OCCN1CCN(CCC=C2c3ccccc3Sc3ccc(C(F)(F)F)cc32)CC1 [flupenthixol] | 1.5 |  |
| CN(CCCN1c2ccccc2CCc2ccccc21)CC(=O)c1ccc(Cl)cc1 [lofepramine] | 5.5 | 2.1 |

Target: T3, human α2C‐adrenoceptor
Assay: ^3H‐rauwolscine whole cell competition binding, CHO‐α2C cells
Details: not given

| Structure (SMILES) | Kd [µM] |
| --- | --- |
| Cc1nc2n(c(=O)c1CCN1CCC(c3noc4cc(F)ccc34)CC1)CCCC2O (centres unmarked) [paliperidone] | 0.014 |

Same assay, conditions: ratio of KD values

| Structure (SMILES) | Selectivity ratio α2A vs α2C (higher affinity for α2C) | Selectivity ratio α2B vs α2C (higher affinity for α2C) |
| --- | --- | --- |
| COc1ccccc1N1CCN(CC2CN3C(=O)N(C)c4ccccc4C3=N2)CC1 (centres unmarked) [2‐MPMDQ] | 5.1 | 36.3 |
| O=C1Nc2ccccc2C2=NC(CN3CCN(c4ccccc4)CC3)CN12 (centres unmarked) [2‐PMDQ] | 1.7 | 8.5 |
| O=C1c2ccccc2CCC1CNCCc1ccc(O)cc1 (centres unmarked) [HEAT] | 4.0 | 2.1 |
| CCS(=O)(=O)N1CCC[C@@H]2CN3CCc4cc(OC)ccc4[C@@H]3C[C@@H]21 [RS79948] | 2.7 | 6.2 |
| COc1ccc(NC(=O)N2CCc3c2ccc2ccccc32)cc1N1CCN(C)CC1 [S32212] | 3.6 |  |
| CN(C)CC/C=C1\c2ccccc2CSc2ccccc21 [dosulepin] | 3.0 |  |
| OCCN1CCN(CCC=C2c3ccccc3Sc3ccc(C(F)(F)F)cc32)CC1 [flupenthixol] | 6.0 | 4.0 |
| CN(CCCN1c2ccccc2CCc2ccccc21)CC(=O)c1ccc(Cl)cc1 [lofepramine] | 2.6 |  |
| O=C1CCC(=O)N1C[C@H]1CC[C@H]2CN(c3ncccn3)CCN2C1 [sunepitron] | 6.8 | 28.8 |
